Laboratory results reported in ChEMBL document CHEMBL1141575, “Preparation and in vitro biological evaluation of tetrapyrrole ethanolamide derivatives as potential anticancer agents” (Bioorg Med Chem Lett, 2008).

What was measured:
HeLa [1] = assay: Survival of human HeLa cells at 0.1 uM under deem light after 96 hrs by MTT assay relative to control; format: functional; conditions: read-out: Survival
HeLa [2] = assay: Survival of human HeLa cells at 10 uM under deem light after 96 hrs by MTT assay relative to control; format: functional; conditions: read-out: Survival
HeLa [3] = assay: Survival of human HeLa cells at 50 uM under deem light after 96 hrs by MTT assay relative to control; format: functional; conditions: read-out: Survival
HeLa [4] = assay: Survival of human HeLa cells at 100 uM under deem light after 96 hrs by MTT assay relative to control; format: functional; conditions: read-out: Survival
NCI-H69 [5] = assay: Survival of human H69 cells at 0.1 uM under deem light after 96 hrs by MTT assay relative to control; format: functional; conditions: NCI-H69, 96 h, read-out: Survival
NCI-H69 [6] = assay: Survival of human H69 cells at 10 uM under deem light after 96 hrs by MTT assay relative to control; format: functional; conditions: NCI-H69, 96 h, read-out: Survival
NCI-H69 [7] = assay: Survival of human H69 cells at 50 uM under deem light after 96 hrs by MTT assay relative to control; format: functional; conditions: NCI-H69, 96 h, read-out: Survival
NCI-H69 [8] = assay: Survival of human H69 cells at 100 uM under deem light after 96 hrs by MTT assay relative to control; format: functional; conditions: NCI-H69, 96 h, read-out: Survival
[9] = Survival of human H209 cells at 0.1 uM under deem light after 96 hrs by MTT assay relative to control; format: functional; conditions: NCI-H209, 96 h, read-out: Survival
[10] = Survival of human H209 cells at 10 uM under deem light after 96 hrs by MTT assay relative to control; format: functional; conditions: NCI-H209, 96 h, read-out: Survival
[11] = Survival of human H209 cells at 50 uM under deem light after 96 hrs by MTT assay relative to control; format: functional; conditions: NCI-H209, 96 h, read-out: Survival
[12] = Survival of human H209 cells at 100 uM under deem light after 96 hrs by MTT assay relative to control; format: functional; conditions: NCI-H209, 96 h, read-out: Survival
[13] = Survival of human 2780.9S cells at 0.1 uM under deem light after 96 hrs by MTT assay relative to control; format: functional; conditions: read-out: Survival
[14] = Survival of human 2780.9S cells at 10 uM under deem light after 96 hrs by MTT assay relative to control; format: functional; conditions: read-out: Survival
[15] = Survival of human 2780.9S cells at 50 uM under deem light after 96 hrs by MTT assay relative to control; format: functional; conditions: read-out: Survival
[16] = Survival of human 2780.9S cells at 100 uM under deem light after 96 hrs by MTT assay relative to control; format: functional; conditions: read-out: Survival
[17] = Survival of human MDA-MB cells at 0.1 uM under deem light after 96 hrs by MTT assay relative to control; format: functional; conditions: read-out: Survival
[18] = Survival of human MDA-MB cells at 10 uM under deem light after 96 hrs by MTT assay relative to control; format: functional; conditions: read-out: Survival
[19] = Survival of human MDA-MB cells at 50 uM under deem light after 96 hrs by MTT assay relative to control; format: functional; conditions: read-out: Survival
[20] = Survival of human MDA-MB cells at 100 uM under deem light after 96 hrs by MTT assay relative to control; format: functional; conditions: read-out: Survival
SiHa [21] = assay: Cytotoxicity against human SIHA cells under deem light after 96 hrs by MTT assay; format: functional, cell-based
Raji [22] = assay: Cytotoxicity against human Raji cells under deem light after 96 hrs by MTT assay; format: functional, cell-based
[23] = Cytotoxicity against human MDA-MB cells under deem light after 96 hrs by MTT assay; format: functional, cell-based
K562 [24] = assay: Cytotoxicity against human K562 cells under deem light after 96 hrs by MTT assay; format: functional, cell-based; conditions: K562, 96 h
HeLa [25] = assay: Cytotoxicity against human HeLa cells under deem light after 96 hrs by MTT assay; format: functional, cell-based
NCI-H69 [26] = assay: Cytotoxicity against human H69 cells under deem light after 96 hrs by MTT assay; format: functional, cell-based; conditions: NCI-H69, 96 h
Daudi = assay: Cytotoxicity against human Daudi cells under deem light after 96 hrs by MTT assay; format: functional, cell-based
[27] = Cytotoxicity against human 2780.9S cells under deem light after 96 hrs by MTT assay; format: functional, cell-based
[28] = Photohemolysis in human RBC in absence of light; format: ADME, cell-based; conditions: erythrocyte
[29] = Photohemolysis in human RBC at 520 nM under exposure to light for 10 mins; format: ADME, cell-based, Erythrocyte; conditions: human red blood cells, read-out: Activity
[30] = Photohemolysis in human RBC assessed as concentration required to 50% hemolysis under light exposure for 5 mins; format: ADME, cell-based, Erythrocyte; conditions: human red blood cells, read-out: Activity
[31] = Photohemolysis in human RBC assessed as concentration required to 50% hemolysis under light exposure for 10 mins; format: ADME, cell-based, Erythrocyte; conditions: human red blood cells, read-out: Activity
SiHa [32] = assay: Survival of human SIHA cells at 1 uM under deem light after 96 hrs by MTT assay relative to control; format: functional; conditions: read-out: Survival
K562 [33] = assay: Survival of human K562 cells at 1 uM under deem light after 96 hrs by MTT assay relative to control; format: functional; conditions: K562, 96 h, read-out: Survival
Raji [34] = assay: Survival of human Raji cells at 1 uM under deem light after 96 hrs by MTT assay relative to control; format: functional; conditions: read-out: Survival
HeLa [35] = assay: Survival of human HeLa cells at 1 uM under deem light after 96 hrs by MTT assay relative to control; format: functional; conditions: read-out: Survival
NCI-H69 [36] = assay: Survival of human H69 cells at 1 uM under deem light after 96 hrs by MTT assay relative to control; format: functional; conditions: NCI-H69, 96 h, read-out: Survival
[37] = Survival of human H209 cells at 1 uM under deem light after 96 hrs by MTT assay relative to control; format: functional; conditions: NCI-H209, 96 h, read-out: Survival
[38] = Survival of human 2780.9S cells at 1 uM under deem light after 96 hrs by MTT assay relative to control; format: functional; conditions: read-out: Survival
[39] = Survival of human MDA-MB cells at 1 uM under deem light after 96 hrs by MTT assay relative to control; format: functional; conditions: read-out: Survival
SiHa [40] = assay: Survival of human SIHA cells at 10 uM under deem light after 96 hrs by MTT assay relative to control; format: functional; conditions: read-out: Survival
SiHa [41] = assay: Survival of human SIHA cells at 50 uM under deem light after 96 hrs by MTT assay relative to control; format: functional; conditions: read-out: Survival
SiHa [42] = assay: Survival of human SIHA cells at 100 uM under deem light after 96 hrs by MTT assay relative to control; format: functional; conditions: read-out: Survival
K562 [43] = assay: Survival of human K562 cells at 0.1 uM under deem light after 96 hrs by MTT assay relative to control; format: functional; conditions: K562, 96 h, read-out: Survival
K562 [44] = assay: Survival of human K562 cells at 10 uM under deem light after 96 hrs by MTT assay relative to control; format: functional; conditions: K562, 96 h, read-out: Survival
K562 [45] = assay: Survival of human K562 cells at 50 uM under deem light after 96 hrs by MTT assay relative to control; format: functional; conditions: K562, 96 h, read-out: Survival
K562 [46] = assay: Survival of human K562 cells at 100 uM under deem light after 96 hrs by MTT assay relative to control; format: functional; conditions: K562, 96 h, read-out: Survival
Raji [47] = assay: Survival of human Raji cells at 0.1 uM under deem light after 96 hrs by MTT assay relative to control; format: functional; conditions: read-out: Survival
Raji [48] = assay: Survival of human Raji cells at 10 uM under deem light after 96 hrs by MTT assay relative to control; format: functional; conditions: read-out: Survival
Raji [49] = assay: Survival of human Raji cells at 50 uM under deem light after 96 hrs by MTT assay relative to control; format: functional; conditions: read-out: Survival
Raji [50] = assay: Survival of human Raji cells at 100 uM under deem light after 96 hrs by MTT assay relative to control; format: functional; conditions: read-out: Survival

C=Cc1c(C)c2cc3nc(c4c5[nH]c(cc6nc(cc1[nH]2)C(C)=C6CC)c(C)c5C(=O)[C@@H]4C(=O)OC)[C@@H](CCC(=O)OC)[C@@H]3C [METHYL PHEOPHORBIDE A]
viability at 0.1 µM (HeLa [1]): 89.1% | viability at 10 µM (HeLa [2]): 72.1% | viability at 50 µM (HeLa [3]): 48.7% | viability at 100 µM (HeLa [4]): 36.7% | viability at 0.1 µM (NCI-H69 [5]): 70.7% | viability at 10 µM (NCI-H69 [6]): 79% | viability at 50 µM (NCI-H69 [7]): 76.7% | viability at 100 µM (NCI-H69 [8]): 63.6% | viability at 0.1 µM [9]: 83.6% | viability at 10 µM [10]: 91.7% | viability at 50 µM [11]: 85.2% | viability at 100 µM [12]: 82.3% | viability at 0.1 µM [13]: 100% | viability at 10 µM [14]: 93.4% | viability at 50 µM [15]: 90.1% | viability at 100 µM [16]: 83.2% | viability at 0.1 µM [17]: 128% | viability at 10 µM [18]: 103% | viability at 50 µM [19]: 101% | viability at 100 µM [20]: 68.9% | IC50 (SiHa [21]): > 100 µM | IC50 (Raji [22]): > 100 µM | IC50 [23]: > 100 µM | IC50 (K562 [24]): > 100 µM | IC50 (HeLa [25]): 25 µM | IC50 (NCI-H69 [26]): > 100 µM | IC50 (Daudi): 25 µM | IC50 [27]: > 100 µM | Activity [28]: Non-toxic | hemolysis at 10 min, 0.52 µM [29]: 18% | HC50 at 5 min [30]: > 525 nM | HC50 at 10 min [31]: > 525 nM | viability at 1 µM (SiHa [32]): 98% | viability at 1 µM (K562 [33]): 93.3% | viability at 1 µM (Raji [34]): 102% | viability at 1 µM (HeLa [35]): 77.4% | viability at 1 µM (NCI-H69 [36]): 84.3% | viability at 1 µM [37]: 90.2% | viability at 1 µM [38]: 94.9% | viability at 1 µM [39]: 115% | viability at 10 µM (SiHa [40]): 90.8% | viability at 50 µM (SiHa [41]): 81% | viability at 100 µM (SiHa [42]): 68% | viability at 0.1 µM (K562 [43]): 86% | viability at 10 µM (K562 [44]): 97.3% | viability at 50 µM (K562 [45]): 97.3% | viability at 100 µM (K562 [46]): 106% | viability at 0.1 µM (Raji [47]): 92.9% | viability at 10 µM (Raji [48]): 107% | viability at 50 µM (Raji [49]): 106% | viability at 100 µM (Raji [50]): 94.3%
